The results in this text go back to paper PMC4410182 (Nature communications, 2015).

One assay addresses T1, A. borkumensis YdaH (Alcanivorax borkumensis, UniProt Q0VR69).
T1 sequence (Q0VR69 1-492): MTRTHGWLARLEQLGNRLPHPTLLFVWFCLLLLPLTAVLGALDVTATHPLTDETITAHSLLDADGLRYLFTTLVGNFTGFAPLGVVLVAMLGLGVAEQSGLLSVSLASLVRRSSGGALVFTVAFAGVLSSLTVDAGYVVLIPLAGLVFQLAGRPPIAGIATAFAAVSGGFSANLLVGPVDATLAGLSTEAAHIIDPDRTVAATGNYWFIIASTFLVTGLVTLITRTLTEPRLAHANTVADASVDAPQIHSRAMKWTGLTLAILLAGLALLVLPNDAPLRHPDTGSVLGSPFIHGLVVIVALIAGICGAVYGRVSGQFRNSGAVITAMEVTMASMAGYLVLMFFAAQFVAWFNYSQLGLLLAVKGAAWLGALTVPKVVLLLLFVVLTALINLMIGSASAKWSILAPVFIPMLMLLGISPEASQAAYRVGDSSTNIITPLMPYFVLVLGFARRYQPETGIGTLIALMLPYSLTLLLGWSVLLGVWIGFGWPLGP
Put plainly: isothermal titration calorimetry. In kind it is binding. In general terms: In ITC the heat of successive injections is recorded.

The target in assay [1] is A. borkumensis YdaH transporter (Alcanivorax borkumensis) (UniProt Q0VR69). Put plainly: SEC. A general note: SEC sorts molecules by how far they enter the pores of the column.

In general, Kd refers to the constant that tells how readily two partners part at equilibrium. A lower Kd goes with tighter binding. `Nc1ccc(S(=O)(=O)Nc2ncccn2)cc1` [sulfadiazine] had an equilibrium dissociation constant (Kd) at A. borkumensis YdaH of 7.04 ± 0.54 µM.
Consider `Cc1cc(C)nc(NS(=O)(=O)c2ccc(N)cc2)n1` [sulfamethazine], for which binding on A. borkumensis YdaH was characterised by a dissociation constant (Kd) of 0.41 ± 0.03 µM.
With `Nc1ccc(S(=O)(=O)Nc2nccs2)cc1` [sulfathiazole], binding on A. borkumensis YdaH was characterised by a dissociation constant (Kd) of 0.6 ± 0.02 µM. This Kd and that of the compound before are within 1.5-fold of each other.
For orientation: stoichiometry N means a count of units in the complex or per binding partner. As for “A. borkumensis YdaH transporter (from UniProt Q0VR69 1-492) (natural protein)”, the stoichiometry N in assay [1] is 2.
